Source: patent US4356185A, “Thiazoles” (John Wyeth & Brother Limited, priority 1980, dated 1982)
Several values for one entry are separate records, joined by “and”; a condition that tells them apart may be missing. Equal values may be shown once.

Tested on: ear edema (croton oil irritant mixture)
Test: anti-inflammatory activity against croton oil-induced ear edema (based on Tonelli et al), topical
Assay type: in vivo, Sprague-Dawley female rats
Conditions: right ear, in irritant mixture, 6 hours
Protocol: Compounds of formula I were tested for anti-inflammatory activity by the following procedure based on Tonelli et al, Endocrinology 77, 625 (1965):
Sprague-Dawley female rats, weighing 60 to 70 grams, are used in groups of 10. Ear edema is induced by inuncting both sides of the ear with an irritant mixture. This mixture containing 1% croton oil, 20% pyridine, 5% water and 74% diethyl ether, with or without test compound, is applied only once and only to the right ear. Six hours later the animals are sacrificed; a 9 mm diameter portion of both ears is punched out with a cork borer and weighed. The anti-inflammatory activity of the test agent is assessed by expressing the percent of the difference in average weight increase between the ears of the control groups and of the treated group. [formula]
Results found for representative compounds of formula I are tabulated below, together with results found in 3 tests for the preferred compound reported by Brown et al in J. Med. Chem.(loc-cit)namely 4-(p-chlorophenyl)-2-phenylthiazole-5-acetic acid (B): […]

| SMILES | % Inhibition (dose 2.5 mg) | % Inhibition (dose 5 mg) | % Inhibition (dose 50 μg) | % Inhibition (dose 500 μg) |
| --- | --- | --- | --- | --- |
| O=C(O)Cc1sc(-c2ccccc2)nc1-c1ccc(Cl)cc1 [4-(p-chlorophenyl)-2-phenylthiazole-5-acetic acid, reference compound] | 93% and 79% and 89% | 92% and 93% | – | – |
| CC(=O)Oc1ccc(-c2nc(-c3ccc(Cl)cc3)c(CC(=O)O)s2)cc1 [R = COCH3, 2-(4-Acetoxyphenyl)-4-(4-chlorophenyl)thiazole-5-acetic acid] | 85% | 100% | -14% | 41% |
| CCCCC(=O)Oc1ccc(-c2nc(-c3ccc(Cl)cc3)c(CC(=O)O)s2)cc1 [R = COC4 H9, 4-(4-Chlorophenyl)-2-(4-Valeryloxyphenyl)thiazole-5-acetic acid] | 71% | 87% | 41% | 54% |
